Experimental data published in ChEMBL document CHEMBL1201862, “PubChem BioAssay data set” (2004).
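How tested: cells in 96-well plates exposed to compound for 48 hours at five concentrations. Here, GI50 denotes the concentration required for 50% inhibition of growth.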 Active and inactive are the calls of the source. No stated cut-off is given here; in the data, active = GI50 up to about 1.1 µM and inactive = higher.

What was measured:
Test in all cases: NCI tumour cell line growth inhibition, 48 h
U-251 = test system: U-251
HCT-15 = test system: HCT-15
HOP-62 = test system: HOP-62
CCRF-CEM = test system: CCRF-CEM
NCI-H460 = test system: NCI-H460
SF-295 = test system: SF-295
MCF7 = test system: MCF7
KM12 = test system: KM12
OVCAR-5 = test system: OVCAR-5
HT-29 = test system: HT-29
UO-31 = test system: UO-31
LOX IMVI = test system: LOX IMVI
SF-268 = test system: SF-268
MDA-N = test system: MDA-N
786-0 = test system: 786-0
NCI-H226 = test system: NCI-H226
SR = test system: SR
SN12C = test system: SN12C
SNB-19 = test system: SNB-19

| SMILES | GI50 (U-251) | GI50 (HCT-15) [µM] | GI50 (HOP-62) | GI50 (CCRF-CEM) | GI50 (NCI-H460) | GI50 (SF-295) | GI50 (MCF7) | GI50 (KM12) | GI50 (OVCAR-5) | GI50 (HT-29) | GI50 (UO-31) | GI50 (LOX IMVI) | GI50 (SF-268) | GI50 (MDA-N) | GI50 (786-0) | GI50 (NCI-H226) | GI50 (SR) | GI50 (SN12C) | GI50 (SNB-19) |
| --- | --- | --- | --- | --- | --- | --- | --- | --- | --- | --- | --- | --- | --- | --- | --- | --- | --- | --- | --- |
| Clc1ccc(OCc2nn3c(CCc4nnc5sc(COc6ccc(Cl)cc6)nn45)nnc3s2)cc1 | 20.7 µM (inactive) | 18.2 | 23.7 µM (inactive) | 29.1 µM (inactive) | 18.4 µM (inactive) | 24.5 µM (inactive) | 21.4 µM (inactive) | 18 µM (inactive) | 53.7 µM (inactive) | 27.8 µM (inactive) | 1.53 µM (inactive) | 37.2 µM (inactive) | 5.61 µM (inactive) | 30.3 µM (inactive) | 26.4 µM (inactive) | 30.3 µM (inactive) |  |  |  |
| COc1cc2c3c(c1OC)-c1c(ccc4c1OCO4)CC3(C#N)N(C(=O)c1ccccc1)CC2 (centres undefined) | 36.4 µM (inactive) | 39.7 | 38.5 µM (inactive) | 51.3 µM (inactive) | 98.9 µM (inactive) | 41.4 µM (inactive) |  | > 100 µM (inactive) | > 100 µM (inactive) | > 100 µM (inactive) | 99.8 µM (inactive) | 43 µM (inactive) | 43.2 µM (inactive) |  | 30.7 µM (inactive) | 37.7 µM (inactive) | > 100 µM (inactive) | 51.2 µM (inactive) | 61.5 µM (inactive) |
| N#Cc1ccc(C2OCC3CC=CCC3CO2)cc1 (centres undefined) | 76.7 µM (inactive) | 61.2 | > 100 µM (inactive) | 44.7 µM (inactive) | 68.7 µM (inactive) | 48.1 µM (inactive) |  | 61.4 µM (inactive) | 71.9 µM (inactive) | 44.7 µM (inactive) | > 100 µM (inactive) | 94.6 µM (inactive) | > 100 µM (inactive) |  | > 100 µM (inactive) | > 100 µM (inactive) | 36.1 µM (inactive) | > 100 µM (inactive) | > 100 µM (inactive) |
| NS(=O)(=O)c1ccc(NC(=O)COC(=O)c2cccc3c(=O)c4ccccc4[nH]c23)cc1 | 14.4 µM (inactive) | 53.5 | 18.5 µM (inactive) | 38.5 µM (inactive) | 33.8 µM (inactive) | 23.9 µM (inactive) |  | 31.6 µM (inactive) | > 56.5 µM (inactive) | > 100 µM (inactive) | 23.3 µM (inactive) | 13.6 µM (inactive) | 15.9 µM (inactive) |  | 19.2 µM (inactive) | 19.6 µM (inactive) | 4.03 µM (inactive) | 24 µM (inactive) | 17 µM (inactive) |
| C[P+](C)(C)C | > 100 µM (inactive) | > 100 | > 100 µM (inactive) | > 100 µM (inactive) | > 100 µM (inactive) | > 100 µM (inactive) |  | > 100 µM (inactive) | > 100 µM (inactive) | > 100 µM (inactive) | > 100 µM (inactive) | > 100 µM (inactive) | > 100 µM (inactive) |  | > 100 µM (inactive) | > 100 µM (inactive) | > 100 µM (inactive) | > 100 µM (inactive) | > 100 µM (inactive) |
| N#CC1=C(Nc2ccccc2)SC=C(c2ccccc2)N=C1NCc1ccccc1 | > 100 µM (inactive) | > 100 | > 100 µM (inactive) |  |  |  | > 100 µM (inactive) | > 100 µM (inactive) | > 100 µM (inactive) |  | 71 µM (inactive) |  | > 100 µM (inactive) | > 100 µM (inactive) | > 100 µM (inactive) |  | 0.984 µM (active) | > 100 µM (inactive) | > 100 µM (inactive) |
| COc1cc(OC)cc(C(=O)Cc2c(C(=O)c3ccccc3)c3ccccc3n2C(=O)c2ccccc2)c1 | 20.2 µM (inactive) | 31.3 | 93.5 µM (inactive) | 16 µM (inactive) | 15.5 µM (inactive) | 19.5 µM (inactive) |  | 33.7 µM (inactive) | > 100 µM (inactive) | 22.9 µM (inactive) | 24.4 µM (inactive) | 31.8 µM (inactive) | 65.3 µM (inactive) |  | 38.9 µM (inactive) | 31.1 µM (inactive) | 14.2 µM (inactive) | 43.8 µM (inactive) | 11.3 µM (inactive) |
